Measurements reported in patent US4691024A, “New mitomycin derivatives, preparation thereof and pharmaceutical compositions containing them” (priority 1984, dated 1987).
In brackets after ≈: the same amount, converted by molar mass. Counter-ions that a name gives are not always drawn. Like-named read-outs stand apart in the source and are kept apart here.

Key:
Assay type in all cases: cell-based
[1] = tested on: Shigella sonnei ATCC 9290; assay: Antibacterial activity, minimum growth inhibitory concentration by agar dilution method (SS)
Experimental: (§1) The various compounds of formula (I) of Examples 1-26 were tested for antibacterial activity against 6 microorganisms. […]. In this table, the following symbols are used:
SS: Shigella sonnei ATCC 9290

[2] = tested on: Proteus vulgaris ATCC 6897; assay: Antibacterial activity, minimum growth inhibitory concentration by agar dilution method (PV)
Experimental: as §1
PV: Proteus vulgaris ATCC 6897

[3] = tested on: Staphylococcus aureus ATCC 6538P; assay: Antibacterial activity, minimum growth inhibitory concentration by agar dilution method (SA); details: ATCC6538P
Experimental: as §1
SA: Staphylococcus aureus ATCC 6538P

[4] = tested on: Streptococcus faecalis ATCC 10541; assay: Antibacterial activity, minimum growth inhibitory concentration by agar dilution method (SF); details: Enterococcus faecalis
Experimental: as §1
SF: Streptococcus faecalis ATCC 10541

Bacillus subtilis 10707 = assay: Antibacterial activity, minimum growth inhibitory concentration by agar dilution method (BS)
Experimental: as §1
BS: Bacillus subtilis 10707

[5] = tested on: Klebsiella pneumoniae ATCC 10031; assay: microbe, parasite or virus in culture; details: ATCC10031, pH 7, read-out: MIC, Klebsiella pneumoniae (KP)
From the text: In this table, the following symbols are used:
KP: Klebsiella pneumoniae ATCC 10031

[6] = ATCC9290, pH 7, read-out: MIC, Shigella sonnei (SS)
[7] = ATCC6897, pH 7, read-out: MIC, Proteus vulgaris (PV)
[8] = pH 7, read-out: MIC, Staphylococcus aureus (SA)
[9] = ATCC10541, pH 7, read-out: MIC, Streptococcus faecalis (SF)
[10] = Bacillus subtilis, 10707, pH 7, read-out: MIC, Bacillus subtilis (BS)

CO[C@@]12[C@H](COC(N)=O)C3=C(C(=O)C(C)=C(NCCSSCCC(N)C(=O)O)C3=O)N1C[C@@H]1N[C@@H]12 (mixture of isomers) [Compound 24, 7-N-[2-[(DL-Homocystein-S-yl)thio]ethyl]mitomycin C]
MIC [1, 6]: 40 µg/mL | MIC [2, 7]: 1.3 µg/mL | MIC [3, 8]: 0.08 µg/mL | MIC [4, 9]: 0.63 µg/mL | MIC (Bacillus subtilis 10707; [10]): < 0.02 µg/mL | MIC [5]: 0.31 µg/mL

CO[C@@]12[C@H](COC(N)=O)C3=C(C(=O)C(C)=C(NCCSSc4ccccc4)C3=O)N1C[C@@H]1N[C@@H]12 [Compound 1, 7-N-[2-(Phenyldithio)ethyl]mitomycin C]
MIC [1, 6]: 20 µg/mL (≈ 39.8 µM) | MIC [2, 7]: 1.3 µg/mL (≈ 2.59 µM) | MIC [3, 8]: 0.02 µg/mL (≈ 0.0398 µM) | MIC [4, 9]: 0.02 µg/mL (≈ 0.0398 µM) | MIC (Bacillus subtilis 10707; [10]): < 0.01 µg/mL | MIC [5]: 0.31 µg/mL (≈ 0.617 µM)

CO[C@@]12[C@H](COC(N)=O)C3=C(C(=O)C(C)=C(NCCSSc4ccccc4N)C3=O)N1C[C@@H]1N[C@@H]12 [Compound 2, 7-N-[2-(2-Aminophenyldithio)ethyl]mitomycin C]
MIC [1, 6]: 20 µg/mL (≈ 38.6 µM) | MIC [2, 7]: 2.5 µg/mL (≈ 4.83 µM) | MIC [3, 8]: 0.04 µg/mL (≈ 0.0773 µM) | MIC [4, 9]: < 0.02 µg/mL | MIC (Bacillus subtilis 10707; [10]): < 0.02 µg/mL | MIC [5]: 0.31 µg/mL (≈ 0.599 µM)

CO[C@@]12[C@H](COC(N)=O)C3=C(C(=O)C(C)=C(NCCSSc4ccc(NC(C)=O)cc4)C3=O)N1C[C@H]1[C@@H]2N1C (some centres unmarked) [Compound 6, 7-N-[2-(4-Acetamidophenyldithio)ethyl]porfiromycin]
MIC [3, 8]: 1.3 µg/mL (≈ 2.27 µM) | MIC [4, 9]: 0.63 µg/mL (≈ 1.1 µM) | MIC (Bacillus subtilis 10707; [10]): 0.08 µg/mL (≈ 0.139 µM) | MIC [5]: > 20 µg/mL

CO[C@@]12[C@H](COC(N)=O)C3=C(C(=O)C(C)=C(NCCSSc4ccc([N+](=O)[O-])cc4)C3=O)N1C[C@@H]1N[C@@H]12 [Compound 8, 7-N-[2-(4-Nitrophenyldithio)ethyl]mitomycin C]
MIC [1, 6]: 5 µg/mL (≈ 9.13 µM) | MIC [2, 7]: 2.5 µg/mL (≈ 4.57 µM) | MIC [3, 8]: 0.16 µg/mL (≈ 0.292 µM) | MIC [4, 9]: 0.16 µg/mL (≈ 0.292 µM) | MIC (Bacillus subtilis 10707; [10]): 0.08 µg/mL (≈ 0.146 µM) | MIC [5]: 1.3 µg/mL (≈ 2.37 µM)

CO[C@@]12[C@H](COC(N)=O)C3=C(C(=O)C(C)=C(NCCSSc4ccc(C)cc4)C3=O)N1C[C@@H]1N[C@@H]12 [Compound 10, 7-N-[2-(4-Methylphenyldithio)ethyl]mitomycin C]
MIC [1, 6]: > 20 µg/mL | MIC [2, 7]: 2.5 µg/mL (≈ 4.84 µM) | MIC [3, 8]: 0.04 µg/mL (≈ 0.0774 µM) | MIC [4, 9]: 0.08 µg/mL (≈ 0.155 µM) | MIC (Bacillus subtilis 10707; [10]): 0.02 µg/mL (≈ 0.0387 µM) | MIC [5]: 1.3 µg/mL (≈ 2.52 µM)

CO[C@@]12[C@H](COC(N)=O)C3=C(C(=O)C(C)=C(NCCSSc4c(F)c(F)cc(F)c4F)C3=O)N1C[C@@H]1N[C@@H]12 [Compound 13, 7-N-[2-(2,3,5,6-Tetrafluorophenyldithio)ethyl]mitomycin C]
MIC [1, 6]: 10 µg/mL (≈ 17.4 µM) | MIC [2, 7]: 5 µg/mL (≈ 8.7 µM) | MIC [3, 8]: 0.16 µg/mL (≈ 0.278 µM) | MIC [4, 9]: 0.31 µg/mL (≈ 0.54 µM) | MIC (Bacillus subtilis 10707; [10]): 0.02 µg/mL (≈ 0.0348 µM) | MIC [5]: 0.63 µg/mL (≈ 1.1 µM)

CC1=C(NCCSSC[C@H](NC(=O)CC[C@H](N)C(=O)O)C(=O)NCC(=O)O)C(=O)C2=C(C1=O)N1C[C@H]3[C@H](N3C)[C@]1(O)[C@H]2COC(N)=O (stereo partly drawn) [Compound 23, 7-N-[2-[(γ-L-glutamyl-L-cysteinylglycin-S-yl)thio]ethyl]-mitomycin D potassium salt]
MIC [2, 7]: 13 µg/mL | MIC [3, 8]: 6.3 µg/mL | MIC [4, 9]: 6.3 µg/mL | MIC (Bacillus subtilis 10707; [10]): 6.3 µg/mL

CCOC(=O)CNC(=O)[C@H](CSSCCNC1=C(C)C(=O)C2=C(C1=O)[C@@H](COC(N)=O)[C@@]1(OC)[C@H]3N[C@H]3CN21)NC(=O)CC[C@H](N)C(=O)O [Compound 25, 7-N-[2-[(γ-L-Glutamyl-L-cysteinyl-ethyl-glycinat-S-yl)thio]ethyl]mitomycin C]
MIC [2, 7]: 10 µg/mL (≈ 13.7 µM) | MIC [3, 8]: 0.16 µg/mL (≈ 0.22 µM) | MIC [4, 9]: 0.63 µg/mL (≈ 0.866 µM) | MIC (Bacillus subtilis 10707; [10]): 0.04 µg/mL (≈ 0.055 µM) | MIC [5]: 2.5 µg/mL (≈ 3.43 µM)

CCOC(=O)CNC(=O)[C@H](CSSCCNC1=C(C)C(=O)C2=C(C1=O)[C@H](COC(N)=O)[C@@]1(O)[C@@H]3[C@H](CN21)N3C)NC(=O)CC[C@H](N)C(=O)O (some centres unmarked) [Compound 26]
MIC [2, 7]: 13 µg/mL (≈ 17.9 µM) | MIC [3, 8]: 6.3 µg/mL (≈ 8.66 µM) | MIC [4, 9]: 13 µg/mL (≈ 17.9 µM) | MIC (Bacillus subtilis 10707; [10]): 1.6 µg/mL (≈ 2.2 µM) | MIC [5]: 25 µg/mL (≈ 34.3 µM)

CO[C@@]12[C@H](COC(N)=O)C3=C(C(=O)C(C)=C(N)C3=O)N1C[C@@H]1N[C@@H]12 [MM-C, Mitomycin C, reference compound]
MIC ([1]; ATCC9290, agar dilution method, pH 7.0, read-out: MIC, Shigella sonnei (SS)): 1.3 µg/mL (≈ 3.89 µM) | MIC ([2]; ATCC6897, agar dilution method, pH 7.0, read-out: MIC, Proteus vulgaris (PV)): 0.04 µg/mL (≈ 0.12 µM) | MIC ([3]; agar dilution method, pH 7.0, read-out: MIC, Staphylococcus aureus (SA)): 0.02 µg/mL (≈ 0.0598 µM) | MIC ([4]; ATCC10541, agar dilution method, pH 7.0, read-out: MIC, Streptococcus faecalis (SF)): 0.04 µg/mL (≈ 0.12 µM) | MIC (Bacillus subtilis 10707; Bacillus subtilis, 10707, agar dilution method, pH 7.0, read-out: MIC, Bacillus subtilis (BS)): 0.01 µg/mL (≈ 0.0299 µM)
